Columns and labels:
[1] = tested on: hiPSC that do not express the respective suicide gene; assay: Cytotoxic effect of the suicide gene substrate on hPSCs that do not express the suicide gene (alkaline phosphatase staining); type: cell-based, human; details: 48 hours
From the text: Cell were fixed and stained for alkaline phosphatase activity after 48 hr. […] Additional experiments will determine the required levels of ganciclovir and 5-FC in hiPSCs that express the suicide gene, to determine the minimum concentration required.

[2] = tested on: BALB/c murine K3T3 sarcoma cell lines with herpes simplex virus thymidine kinase gene; details: K3T3 sarcoma cell lines carrying HSV thymidine kinase gene; cited from earlier work
K3T3 sarcoma tumors = details: BALB/c mice bearing K3T3 sarcoma tumors produced by the cell lines; cited from earlier work

**Q.** With Nc1nc(=O)[nH]cc1F [Vector 5-FC, 5-Flurocytosine] as the compound, how does the “cytotoxic effect on hiPSCs” value ([1]; 5-FC 1, 10 and 100 μM) read?
**A.** The value was “no cytotoxic effect”.

**Q.** Which “effect on tumor cells in vitro” value [2] does the source give for Nc1nc(O)c2ncn(COC(CO)CO)c2n1 [ganciclovir, Ganciclovir] here?
**A.** Its value is “destruction of the tumor cells”.

**Q.** And the “effect on tumors in vivo” value (K3T3 sarcoma tumors)?
**A.** The value was “destruction of the tumors”.

**Q.** What about the “cytotoxic effect on hiPSCs” value ([1]; ganciclovir 0.2, 2 or 20 μM) of the same compound?
**A.** The value was “no cytotoxic effect”.

Source: US20170226483A1, “Methods and Vectors to Produce Vector Free Induced Pluripotent Stem Cells” (Lonza Walkersville, Inc., priority 2016, published 2017)
